Molecules are shown by their SMILES. Where “and” joins values, the source holds several entries; their conditions need not be identical. Equal values may be shown once.

Common to all, as to experiment: Affinity-purification and mass spectrometry (AP-MS) chemical proteomics, all proteins;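 on Difference: 200 µM free competitor with 20 µM biotin probe overnight in lysate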
What all share (format): binding

The target of experiment [1] is T1, proteins displaced from immobilized biotin-Cmpd 1 pulldowns (U2OS cell lysate) (Homo sapiens, UniProt P25311).
T1 construct: endogenous in cells; host or cells: U2OS
T1 sequence (P25311 21-298): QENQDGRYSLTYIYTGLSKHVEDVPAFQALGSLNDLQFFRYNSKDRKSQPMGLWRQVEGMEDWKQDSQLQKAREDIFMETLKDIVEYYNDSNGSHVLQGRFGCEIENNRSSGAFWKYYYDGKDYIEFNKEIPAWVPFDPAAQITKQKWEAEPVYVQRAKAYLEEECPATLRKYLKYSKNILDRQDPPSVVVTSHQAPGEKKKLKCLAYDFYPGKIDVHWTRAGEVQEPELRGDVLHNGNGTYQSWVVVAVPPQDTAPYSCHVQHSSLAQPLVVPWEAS
The settings on record: GN=AZGP1 (P25311).

Experiment [2] deals with T2, proteins displaced from immobilized biotin-Cmpd 1 pulldowns (U2OS cell lysate) (Homo sapiens, UniProt P06493).
T2 construct: endogenous in cells; host or cells: U2OS
T2 sequence (P06493 whole entry): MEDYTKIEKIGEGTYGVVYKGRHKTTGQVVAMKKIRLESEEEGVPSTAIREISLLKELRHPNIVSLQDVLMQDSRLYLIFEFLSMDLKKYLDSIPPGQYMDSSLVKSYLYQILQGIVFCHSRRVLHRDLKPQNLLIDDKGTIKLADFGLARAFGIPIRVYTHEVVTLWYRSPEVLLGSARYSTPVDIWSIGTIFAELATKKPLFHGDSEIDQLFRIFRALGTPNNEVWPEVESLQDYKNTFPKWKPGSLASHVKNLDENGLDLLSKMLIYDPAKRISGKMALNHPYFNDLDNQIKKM
To be noted: GN=CDK1 (P06493).

In experiment [3] the target is T3, proteins displaced from immobilized biotin-Cmpd 1 pulldowns (U2OS cell lysate) (Homo sapiens, UniProt P50991).
T3 construct: endogenous in cells; host or cells: U2OS
T3 sequence (P50991 whole entry): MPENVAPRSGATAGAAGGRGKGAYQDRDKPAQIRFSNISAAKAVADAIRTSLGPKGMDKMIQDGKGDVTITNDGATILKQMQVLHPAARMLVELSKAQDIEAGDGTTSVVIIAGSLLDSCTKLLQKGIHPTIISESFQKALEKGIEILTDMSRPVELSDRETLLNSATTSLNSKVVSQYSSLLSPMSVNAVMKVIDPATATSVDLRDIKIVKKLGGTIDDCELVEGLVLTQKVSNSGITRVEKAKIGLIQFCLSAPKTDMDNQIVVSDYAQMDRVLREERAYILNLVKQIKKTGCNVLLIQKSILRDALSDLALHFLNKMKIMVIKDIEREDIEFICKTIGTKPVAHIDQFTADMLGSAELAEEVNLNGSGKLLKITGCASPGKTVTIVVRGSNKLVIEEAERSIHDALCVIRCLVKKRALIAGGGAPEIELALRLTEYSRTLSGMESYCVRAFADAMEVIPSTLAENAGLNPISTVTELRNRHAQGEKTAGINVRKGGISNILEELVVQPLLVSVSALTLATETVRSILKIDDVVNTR
The settings on record: GN=CCT4 (P50991).

In experiment [4] the target is T4, proteins displaced from immobilized biotin-Cmpd 1 pulldowns (U2OS cell lysate) (Homo sapiens, UniProt O43684).
T4 construct: endogenous in cells; host or cells: U2OS
T4 sequence (O43684 whole entry): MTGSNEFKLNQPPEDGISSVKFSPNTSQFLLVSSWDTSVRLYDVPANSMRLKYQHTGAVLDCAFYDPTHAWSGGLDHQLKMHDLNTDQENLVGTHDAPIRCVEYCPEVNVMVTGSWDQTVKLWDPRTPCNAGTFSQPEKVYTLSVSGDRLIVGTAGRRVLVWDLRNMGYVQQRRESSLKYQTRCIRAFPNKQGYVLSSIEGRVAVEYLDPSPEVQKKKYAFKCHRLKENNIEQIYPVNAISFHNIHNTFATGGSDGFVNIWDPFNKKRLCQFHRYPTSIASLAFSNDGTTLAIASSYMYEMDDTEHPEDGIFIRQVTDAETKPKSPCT
To be noted: GN=BUB3 (O43684).

Experiment [5] addresses T5, proteins displaced from immobilized biotin-Cmpd 1 pulldowns (U2OS cell lysate) (Homo sapiens, UniProt O15213).
T5 construct: endogenous in cells; host or cells: U2OS
To be noted: GN=WDR46 (O15213).

In experiment [6] the target is T6, proteins displaced from immobilized biotin-Cmpd 1 pulldowns (U2OS cell lysate) (Homo sapiens, UniProt P62306).
T6 construct: endogenous in cells; host or cells: U2OS
T6 sequence (P62306 whole entry): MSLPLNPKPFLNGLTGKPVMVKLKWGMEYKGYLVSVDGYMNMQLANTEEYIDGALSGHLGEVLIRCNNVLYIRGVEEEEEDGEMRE
To be noted: GN=SNRPF (P62306).

Experiment [7] deals with T7, proteins displaced from immobilized biotin-Cmpd 1 pulldowns (U2OS cell lysate) (Homo sapiens, UniProt P35606).
T7 construct: endogenous in cells; host or cells: U2OS
T7 sequence (P35606 whole entry): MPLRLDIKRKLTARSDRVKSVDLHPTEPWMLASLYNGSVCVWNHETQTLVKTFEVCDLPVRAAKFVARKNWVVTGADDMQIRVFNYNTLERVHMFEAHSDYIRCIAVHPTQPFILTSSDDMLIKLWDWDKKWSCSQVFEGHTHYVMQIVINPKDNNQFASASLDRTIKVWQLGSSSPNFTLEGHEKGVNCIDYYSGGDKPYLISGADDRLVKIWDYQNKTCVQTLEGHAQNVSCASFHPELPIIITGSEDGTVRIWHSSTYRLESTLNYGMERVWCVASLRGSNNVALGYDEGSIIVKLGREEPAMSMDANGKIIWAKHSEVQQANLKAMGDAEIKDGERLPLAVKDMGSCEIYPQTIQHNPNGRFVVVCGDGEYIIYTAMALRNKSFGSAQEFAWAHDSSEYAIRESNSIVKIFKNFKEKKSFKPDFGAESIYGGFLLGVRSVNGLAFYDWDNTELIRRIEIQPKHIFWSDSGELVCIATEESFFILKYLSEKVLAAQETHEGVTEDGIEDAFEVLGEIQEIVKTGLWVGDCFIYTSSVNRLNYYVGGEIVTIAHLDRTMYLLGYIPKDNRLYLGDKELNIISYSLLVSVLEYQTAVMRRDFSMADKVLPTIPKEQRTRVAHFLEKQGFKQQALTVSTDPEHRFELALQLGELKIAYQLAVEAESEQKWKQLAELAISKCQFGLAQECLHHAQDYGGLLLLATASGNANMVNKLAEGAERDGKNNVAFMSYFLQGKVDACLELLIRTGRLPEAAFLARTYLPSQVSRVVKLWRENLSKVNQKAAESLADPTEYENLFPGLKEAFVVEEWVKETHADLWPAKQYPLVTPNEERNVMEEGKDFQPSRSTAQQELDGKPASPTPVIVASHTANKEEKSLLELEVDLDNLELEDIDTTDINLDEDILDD
The settings on record: GN=COPB2 (P35606).

The target of experiment [8] is T8, proteins displaced from immobilized biotin-Cmpd 1 pulldowns (U2OS cell lysate) (Homo sapiens, UniProt Q8NBJ5).
T8 construct: endogenous in cells; host or cells: U2OS
To be noted: GN=COLGALT1 (Q8NBJ5).

For experiment [9], the target named is T9, proteins displaced from immobilized biotin-Cmpd 1 pulldowns (U2OS cell lysate) (Homo sapiens, UniProt Q96AG4).
T9 construct: endogenous in cells; host or cells: U2OS
T9 sequence (Q96AG4 whole entry): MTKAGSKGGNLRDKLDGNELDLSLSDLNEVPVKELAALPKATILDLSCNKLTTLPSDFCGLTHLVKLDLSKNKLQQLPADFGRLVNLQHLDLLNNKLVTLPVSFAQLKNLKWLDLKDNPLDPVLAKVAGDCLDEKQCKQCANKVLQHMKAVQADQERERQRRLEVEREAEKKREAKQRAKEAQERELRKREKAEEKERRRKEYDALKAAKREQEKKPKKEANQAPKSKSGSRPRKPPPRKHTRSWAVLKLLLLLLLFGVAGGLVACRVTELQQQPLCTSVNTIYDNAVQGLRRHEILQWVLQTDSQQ
The settings on record: GN=LRRC59 (Q96AG4).

Experiment [10] addresses T10, proteins displaced from immobilized biotin-Cmpd 1 pulldowns (U2OS cell lysate) (Homo sapiens, UniProt P62424).
T10 construct: endogenous in cells; host or cells: U2OS
The settings on record: GN=RPL7A (P62424).

T5 sequence (O15213 whole entry): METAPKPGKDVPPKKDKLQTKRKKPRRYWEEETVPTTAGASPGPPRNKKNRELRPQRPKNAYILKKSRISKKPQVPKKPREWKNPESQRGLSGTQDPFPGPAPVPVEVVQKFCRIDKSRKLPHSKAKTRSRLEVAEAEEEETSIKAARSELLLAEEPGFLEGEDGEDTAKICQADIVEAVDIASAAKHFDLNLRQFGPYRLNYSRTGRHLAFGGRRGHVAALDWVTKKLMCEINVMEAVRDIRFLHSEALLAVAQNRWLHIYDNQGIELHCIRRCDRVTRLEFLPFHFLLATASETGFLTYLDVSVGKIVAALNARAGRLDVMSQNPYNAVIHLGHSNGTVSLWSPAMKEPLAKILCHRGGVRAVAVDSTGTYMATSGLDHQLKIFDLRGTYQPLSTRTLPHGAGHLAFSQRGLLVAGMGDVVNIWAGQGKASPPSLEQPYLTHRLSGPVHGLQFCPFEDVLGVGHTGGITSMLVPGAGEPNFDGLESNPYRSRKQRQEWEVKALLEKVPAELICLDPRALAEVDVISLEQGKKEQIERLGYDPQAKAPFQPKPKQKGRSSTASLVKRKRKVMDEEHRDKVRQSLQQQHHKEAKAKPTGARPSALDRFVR

Take `Cn1c2c(c(=N)c3c1CCC3)CCC2` [Compound 1, 4-methyl-2,3,4,5,6,7-hexahydrodicyclopenta[b,e]pyridin-8(1H)-imine]: the Difference in experiment [1] (Cmpd minus DMSO, -LOG(P-value) 0.92202) is listed as -1.239; in [2] (Cmpd minus DMSO, -LOG(P-value) 0.868994), -0.7208; in [3] (Cmpd minus DMSO, -LOG(P-value) 0.713793), 0.7229; in experiment [4] (Cmpd minus DMSO, -LOG(P-value) 1.63376) it was 1.137; in [5] (Cmpd minus DMSO, -LOG(P-value) 1.25579) it was -1.697; in experiment [6] (Cmpd minus DMSO, -LOG(P-value) 2.38454), -6.902. Besides, the Difference is listed as 1.032 in experiment [7] (Cmpd minus DMSO, -LOG(P-value) 1.0232); 1.872 in experiment [8] (Cmpd minus DMSO, -LOG(P-value) 0.726003); -2.23 in [9] (Cmpd minus DMSO, -LOG(P-value) 0.840063); 0.2314 in experiment [10] (Cmpd minus DMSO, -LOG(P-value) 0.865251). Besides, the “iBAQ Cmpd” value is 21.041 and 21.3151 and 19.6243 in experiment [1] (replicates 1-3); 20.3513 and 19.7871 and 19.2381 in experiment [2] (replicates 1-3); 21.0359 and 20.6692 and 20.6092 in [3] (replicates 1-3); 19.492 and 19.0748 and 18.4379 in experiment [4] (replicates 1-3); 17.4002 and 17.0091 and 16.4289 in [5] (replicates 1-3); 16.7845 and 14.607 and 12.7996 in [6] (replicates 1-3). Besides, the “iBAQ Cmpd” value in experiment [7] (replicates 1-3) was 16.3801 and 15.3301 and 15.6123; in [8] (replicates 1-3), 17.5569 and 16.2606 and 16.9957; in experiment [9] (replicates 1-3), 17.7382 and 14.7804 and 13.8761; in experiment [10] (replicates 1-3), 25.9383 and 25.6872 and 25.6067.

The record behind these values is PMC9481570, “A small molecule antagonist of SMN disrupts the interaction between SMN and RNAP II” (Nature Communications, 2022).
